According to patent publication US20120129838A1, “Composition for Preventing and Treating Alopecia Disorder Containing Morgalanthamine Compounds as an Active Ingredient” (The Industry & Academic Cooperation in Chungnam National …, priority 2009, published 2012):
Where a name gives a salt, the structure may show the parent alone.

Assays:
[1] = test system: rat vibrissa immortalized dermal papilla cell line; assay: Proliferation of dermal papilla cells (MTT assay); type: cell-based; conditions: incubated for 4 days, absorbance at 540 nm
Protocol: A rat vibrissa immortalized dermal papilla cell line obtained by immortalizing dermal papilla cells isolated from rat whiskers (Filsell W, et al., Transfection of rat dermal papilla cells with a gene encoding a temperature-sensitive polyomavirus large T antigen generates cell lines a differentiated phenotype., J. Cell Sci, 107, pp. 1761-1772, 1994) was incubated at 37° C. in a DMEM (Hyclone Inc, USA) medium containing […] (Gibco Inc, NY, USA) and 10% heat-inactivated fetal bovine serum (FBS, Gibco Inc, NY, USA) using a 5% CO2 pyrostat, and subcultured every 3 days.
The cultured dermal papilla cells (1.0×10^4 cells/ml) were put into each well of a 96-well plate, and incubated for 24 hours. Then, a used culture solution was changed with a serum-free DMEM medium, and cultured again for 24 hours. Thereafter, the cultured solution was treated with 0.01 and 0.1 μM concentrations of the norgalanthamine compound of Experimental Example 1, and a 1 μM concentration of a positive control, minoxidil sulfate (M.S., Sigma, Mo., USA), respectively. The resulting mixture was incubated for 4 days, 50 μl of MTT (Sigma, Mo., USA) was added thereto, and the mixture was reacted for 4 hours. A supernatant was removed, and a pellet was dissolved in 200 μl of DMSO, and then measured for absorbance at 540 nm using a microplate reader (Amersham Pharmacia Biotech, NY, USA). An average absorbance value of each sample group was calculated, and a level of the hair proliferation was examined by comparing the average absorbance value with an absorbance value of the control.

rat vibrissa follicles = assay: Growth of rat vibrissa follicles in organ culture; conditions: time point of 21 days, isolated Wistar rat vibrissa follicles
Protocol: In order to measure an effect of the norgalanthamine compound prepared in Experimental Example 1 on hair growth, the following experiment was performed using a method described in the publication (Philpott M P, et al., Cyclical changes in rat vibrissa follicles maintained in vitro. J Invest Dermatol. 115, pp. 1152-1155, 2000),
A 3-week-old male Wistar rat (Japan SLC, Hamamatsu, Japan) was purchased from Central Lab. Animal Inc. (Korea), anesthetized with ethyl ether, and killed by cervical vertebral dislocation. The left and right mystacial pads of the rat were extracted and put into an E/P buffer ((EBSS, Earle's balanced salts solution, Sigma Mo., USA)+(PBS, phosphate-buffered saline, Sigma Mo., USA)) supplemented with 100 units/ml penicillin and 100 μg/ml streptomycin (Gibco Inc, NY, USA). Vibrissa follicles were carefully isolated under a steroscopic dissecting microscope. Until the hair follicles were completely isolated, the hair follicles were put into a Petri dish containing an E/P buffer, and incubated at 37° C. for 1 hour in a 5% CO2 pyrostat. 500 μl of William E medium (Gibco Inc, NY, USA) containing 2 mM. L-glutamine (Gibco Inc, NY, USA), 10 μg/ml insulin (Sigma Mo., USA), 50 nM hydrocortisone (Sigma Mo., USA) and 100 units/ml penicillin-100 μg/ml streptomycin was put into each well of a 24-well plate, and one hair follicle was added to each well, and incubated at […] in a 5% CO2 pyrostat. 10 to 12 hair follicles were used in each experimental group, and a medium was changed with a fresh medium every 3 days during the incubation. […]
Photographs of shapes of vibrissa follicles were taken using a microscope (Olympus, Japan). Lengths of hair follicles were measured at time points of 0, 7, 14 and 21 days using an image analyzer (DP controller; Olympus, Japan). An average variation in lengths of the hair follicles was calculated, and a growth level was measured by comparing the average variation with an average length of the control.

Row | Structure (SMILES) | proliferation of dermal papilla cells compared to the control (100%) ([1]; 1 μM, positive control) | growth of hair fiber compared to that of the control (100%) (rat vibrissa follicles; 1 uM, positive control) | proliferation of dermal papilla cells compared to the control (100%) ([1]; 0.01 μM) | proliferation of dermal papilla cells compared to the control (100%) ([1]; 0.1 μM) | growth of hair fiber compared to that of the control (100%) (rat vibrissa follicles; 0.01 uM) | growth of hair fiber compared to that of the control (100%) (rat vibrissa follicles; 0.1 uM)
1 | Nc1cc(N2CCCCC2)nc(N)[n+]1OS(=O)(=O)[O-] [minoxidil sulfate, reference compound] | 114.9±4.5% | 135.03±38.8% | – | – | – | –
2 | COc1ccc2c3c1OC1C[C@@H](O)C=C[C@@]31CCNC2 (stereo partly drawn) [norgalanthamine] | – | – | 114.0±4.3% | 106.2±5.6% | 128.7±13.8% | 139.2±10.3%
